Laboratory results as given in patent publication US11548870B2, “Compounds useful as inhibitors of helios protein” (Bristol-Myers Squibb Company, priority 2019, dated 2023).
“And” between values parts separate entries of the source, which are not always exact repeats. Equal entries are not always repeated. Where two headings read alike, the source gives them in different places.

Tests used:
[1] = target: T1, Helios (Homo sapiens, UniProt Q96SW2+Q9UKS7); assay: Helios Cellular Degradation Assay (flow cytometry, Helios-PE antibody staining, 72 h); type: cell-based; conditions: for Dmax: Jurkat, read-out: Helios Dmax
T1 construct: fluorescently labelled antibodies against Helios and Ikaros; endogenous in cells; host or cells: Jurkat cells
Protocol: (§1) Helios Cellular Degradation Assay
(§2) Jurkat cells were plated at 80,000 cells/well in 40 μL RPMI+10% FBS in a 384 well cell culture plate prior to using acoustic dispensing technology for adding compound of interest. Cell cultures were incubated for 72 h at 37° C. and 5% CO2. In order to facilitate analysis, cell cultures were spun down at 200 rpm for 5 min and the supernatant was discarded. After shaking the plate to dislodge the cell pellet, cells were resuspended in 50 μL of Fixation Buffer (eBioScience FoxP3 buffer set 0000) for 60 min at room temperature. After centrifuging and discarding the supernatant, cells were permeabilized with 50 μL of Permeabilization buffer (eBioScience FoxP3 buffer set 00-5523-00) for 10 min at room temperature. Following permeabilization, cells were spun down and the supernatant was replaced with 20 μL fluorescently labelled antibodies against Helios and Ikaros or corresponding Isotype controls in 1× Permeabilization buffer (Ikaros-Alexa488 [Biolegend, Cat #368408, 1:50], Helios-PE [CST, Cat #29360, 1:50]) and staining reactions were incubated for 1 h at room temperature; protected from light. Subsequently, 30 μL of 1× Permeabilization buffer was added prior to centrifuging the cells and discarding the supernatant. Stained cells were resuspended in 25 μL of flow cytometry staining buffer (PBS+0.2% BSA) and analyzed using an Intellicyt Ique Plus flow cytometer.
as §2, with “00-5523-00)” for “0000)”

[2] = target: T2, Ikaros (Homo sapiens, UniProt Q13422); assay: Helios Cellular Degradation Assay, Ikaros readout (flow cytometry, Ikaros-Alexa488 antibody staining, 72 h); type: cell-based; conditions: Jurkat cells, 72 h incubation, flow cytometry; for Dmax: Jurkat, read-out: Ikaros Dmax
T2 construct: fluorescently labelled antibodies against Helios and Ikaros; endogenous in cells; host or cells: Jurkat cells
Protocol: as §1, §2
as §2, with “00-5523-00)” for “0000)”

[3] = Jurkat cells, 72 h incubation, flow cytometry

T1 sequence (Q9UKS7 whole entry): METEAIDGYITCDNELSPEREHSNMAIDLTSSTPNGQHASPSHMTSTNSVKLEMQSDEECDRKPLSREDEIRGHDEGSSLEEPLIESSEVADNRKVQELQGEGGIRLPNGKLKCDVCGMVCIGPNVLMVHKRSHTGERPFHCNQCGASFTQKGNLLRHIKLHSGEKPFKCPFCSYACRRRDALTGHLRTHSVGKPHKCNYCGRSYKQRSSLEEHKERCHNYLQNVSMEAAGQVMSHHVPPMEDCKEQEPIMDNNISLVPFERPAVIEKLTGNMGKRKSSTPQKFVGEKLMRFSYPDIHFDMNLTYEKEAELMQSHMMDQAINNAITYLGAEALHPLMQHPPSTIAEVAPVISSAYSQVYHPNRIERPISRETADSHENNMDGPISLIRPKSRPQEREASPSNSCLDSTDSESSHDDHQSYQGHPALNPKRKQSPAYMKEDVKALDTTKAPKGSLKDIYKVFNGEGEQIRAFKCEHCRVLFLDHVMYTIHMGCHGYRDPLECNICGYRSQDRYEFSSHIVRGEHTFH
T1 sequence (Q96SW2 whole entry): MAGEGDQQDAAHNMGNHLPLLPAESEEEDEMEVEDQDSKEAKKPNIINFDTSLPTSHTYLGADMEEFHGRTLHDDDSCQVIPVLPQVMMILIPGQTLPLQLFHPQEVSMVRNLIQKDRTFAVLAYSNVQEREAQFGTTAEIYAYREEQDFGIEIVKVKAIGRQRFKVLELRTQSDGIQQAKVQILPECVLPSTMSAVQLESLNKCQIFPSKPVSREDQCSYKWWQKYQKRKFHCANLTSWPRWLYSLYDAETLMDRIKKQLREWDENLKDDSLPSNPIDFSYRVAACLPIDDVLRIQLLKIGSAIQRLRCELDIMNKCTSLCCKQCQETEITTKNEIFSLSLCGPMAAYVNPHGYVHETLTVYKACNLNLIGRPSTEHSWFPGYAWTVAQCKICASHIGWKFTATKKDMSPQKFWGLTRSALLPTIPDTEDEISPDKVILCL
T1 sequence (Q16531 whole entry partner): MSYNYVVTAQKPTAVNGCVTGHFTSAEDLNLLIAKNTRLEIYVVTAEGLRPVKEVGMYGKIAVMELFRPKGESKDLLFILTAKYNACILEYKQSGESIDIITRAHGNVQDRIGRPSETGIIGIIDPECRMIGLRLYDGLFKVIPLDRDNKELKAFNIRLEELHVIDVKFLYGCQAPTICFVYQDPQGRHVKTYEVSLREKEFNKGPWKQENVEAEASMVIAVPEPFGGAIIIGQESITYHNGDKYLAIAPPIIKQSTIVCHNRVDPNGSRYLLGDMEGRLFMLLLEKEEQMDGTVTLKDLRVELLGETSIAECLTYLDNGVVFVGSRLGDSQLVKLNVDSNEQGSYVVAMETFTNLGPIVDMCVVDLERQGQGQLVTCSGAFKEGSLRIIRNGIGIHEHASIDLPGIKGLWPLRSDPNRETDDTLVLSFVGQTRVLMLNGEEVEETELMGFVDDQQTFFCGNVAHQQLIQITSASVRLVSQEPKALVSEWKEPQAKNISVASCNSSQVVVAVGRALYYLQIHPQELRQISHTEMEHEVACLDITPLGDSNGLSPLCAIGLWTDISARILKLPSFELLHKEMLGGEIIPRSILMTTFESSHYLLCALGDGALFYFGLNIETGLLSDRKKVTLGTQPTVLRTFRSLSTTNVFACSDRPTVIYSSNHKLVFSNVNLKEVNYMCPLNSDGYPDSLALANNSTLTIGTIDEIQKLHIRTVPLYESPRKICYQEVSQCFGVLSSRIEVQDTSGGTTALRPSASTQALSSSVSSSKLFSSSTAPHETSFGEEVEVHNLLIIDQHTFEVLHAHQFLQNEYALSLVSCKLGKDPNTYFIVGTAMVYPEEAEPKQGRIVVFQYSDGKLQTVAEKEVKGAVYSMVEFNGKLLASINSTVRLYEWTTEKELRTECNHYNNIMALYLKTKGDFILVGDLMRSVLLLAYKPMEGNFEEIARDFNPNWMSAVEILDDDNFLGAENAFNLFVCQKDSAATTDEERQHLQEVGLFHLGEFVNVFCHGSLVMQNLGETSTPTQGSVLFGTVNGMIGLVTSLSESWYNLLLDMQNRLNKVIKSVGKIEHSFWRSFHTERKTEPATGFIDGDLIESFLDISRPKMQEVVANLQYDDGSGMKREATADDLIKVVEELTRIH
T2 sequence (Q96SW2 whole entry partner): as the sequence (Q96SW2 whole entry) above
T2 sequence (Q16531 whole entry partner): as the sequence (Q16531 whole entry partner) above
T2 sequence (Q13422 whole entry): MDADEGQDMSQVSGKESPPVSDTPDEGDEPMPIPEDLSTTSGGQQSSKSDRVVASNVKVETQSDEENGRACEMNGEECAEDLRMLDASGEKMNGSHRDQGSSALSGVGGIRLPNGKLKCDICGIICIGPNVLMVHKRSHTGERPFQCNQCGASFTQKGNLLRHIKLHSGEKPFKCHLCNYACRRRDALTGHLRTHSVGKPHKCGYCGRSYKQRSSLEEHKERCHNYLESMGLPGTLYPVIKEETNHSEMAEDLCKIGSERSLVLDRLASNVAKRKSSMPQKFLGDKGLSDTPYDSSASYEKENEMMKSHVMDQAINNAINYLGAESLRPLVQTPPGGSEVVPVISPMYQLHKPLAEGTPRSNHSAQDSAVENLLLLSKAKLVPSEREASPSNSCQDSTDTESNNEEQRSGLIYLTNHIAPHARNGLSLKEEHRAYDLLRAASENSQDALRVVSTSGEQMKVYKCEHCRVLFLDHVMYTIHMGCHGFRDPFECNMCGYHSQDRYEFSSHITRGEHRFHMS

DC50 [1, 3] [µM]	DC50 [2] [µM]	Dmax [1, 3] [%]	Dmax [2] [%]	Compound	Helios Dmax [1, 3]	Ikaros Dmax [2]	Dmax [1] [%]
> 10	> 10			O=C1CCC(N2Cc3cc(-c4cc(CN5CCC5c5ccccc5)ccn4)ccc3C2=O)C(=O)N1 (single isomer, unassigned) [Example 204, 3-(1-oxo-5-(4-((2-phenylazetidin-1-yl)methyl)pyridin-2-yl)isoindolin-2-yl)piperidine-2,6-dione]	2.42% and 2.4%		
> 10	> 10			O=C1CCC(N2Cc3cc(-c4cc(CN5CCC5c5ccccc5)ccn4)ccc3C2=O)C(=O)N1 (single isomer, unassigned) [Example 205, 3-(1-oxo-5-(4-((2-phenylazetidin-1-yl)methyl)pyridin-2-yl)isoindolin-2-yl)piperidine-2,6-dione]		8.15% and 6%	
0.025	> 10	84	9	CN(C)Cc1ccnc(-c2ccc3c(c2)CN(C2CCC(=O)NC2=O)C3=O)c1 (stereo not shown) [Example 1, 3-(5-{4-[(Dimethylamino)methyl]pyridin-2-yl}-1-oxo-2,3-dihydro-1H-isoindol-2-yl) piperidine-2,6-dione]			
0.011	> 10	92	16	O=C1CCC(N2Cc3cc(-c4cc(CNCc5ccccc5)ccn4)ccc3C2=O)C(=O)N1 (stereo not shown) [Example 2, 3-(5-(4-((benzylamino)methyl)pyridin-2-yl)-1-oxoisoindolin-2-yl)piperidine-2,6-dione]			
0.038	> 10	87	3	CCCN(C)Cc1ccnc(-c2ccc3c(c2)CN(C2CCC(=O)NC2=O)C3=O)c1 (stereo not shown) [Example 3, 3-(5-(4-((methyl(propyl)amino)methyl)pyridin-2-yl)-1-oxoisoindolin-2-yl)piperidine-2,6-dione]			
0.096	> 10	84	8	CCN(C)Cc1ccnc(-c2ccc3c(c2)CN(C2CCC(=O)NC2=O)C3=O)c1 (stereo not shown) [Example 4, 3-(5-(4-((ethyl(methyl)amino)methyl)pyridin-2-yl)-1-oxoisoindolin-2-yl)piperidine-2,6-dione]			
0.044	> 10			CCN(C)Cc1ccnc(-c2ccc3c(c2)CN(C2CCC(=O)NC2=O)C3=O)c1 (stereo not shown) [Example 5]	90%	5%	
0.028	> 10			CCN(C)Cc1ccnc(-c2ccc3c(c2)CN(C2CCC(=O)NC2=O)C3=O)c1 (stereo not shown) [Example 6]	86%	6%	
0.138	> 10	85	20	COCCN(C)Cc1ccnc(-c2ccc3c(c2)CN(C2CCC(=O)NC2=O)C3=O)c1 (stereo not shown) [Example 7, 3-(5-(4-(((2-methoxyethyl)(methyl)amino)methyl)pyridin-2-yl)-1-oxoisoindolin-2-yl)piperidine-2,6-dione]			
0.026	> 10	85	18	O=C1CCC(N2Cc3cc(-c4cc(CN5CCCC5)ccn4)ccc3C2=O)C(=O)N1 (stereo not shown) [Example 8, 3-(1-oxo-5-(4-(pyrrolidin-1-ylmethyl)pyridin-2-yl)isoindolin-2-yl)piperidine-2,6-dione]			
0.167	> 10	87	4	CCCCN(C)Cc1ccnc(-c2ccc3c(c2)CN(C2CCC(=O)NC2=O)C3=O)c1 (stereo not shown) [Example 9, 3-(5-(4-((butyl(methyl)amino)methyl)pyridin-2-yl)-1-oxoisoindolin-2-yl)piperidine-2,6-dione]			
0.183	> 10	67	9	CCCN(Cc1ccnc(-c2ccc3c(c2)CN(C2CCC(=O)NC2=O)C3=O)c1)CC1CC1 (stereo not shown) [Example 10, 3-(5-(4-(((cyclopropylmethyl)(propyl)amino)methyl)pyridin-2-yl)-1-oxoisoindolin-2-yl)piperidine-2,6-dione]			
> 10	> 10	37	16	O=C1CCC(N2Cc3cc(-c4cc(CN5CCN(Cc6ccc7c(c6)OCO7)CC5)ccn4)ccc3C2=O)C(=O)N1 (stereo not shown) [Example 12, 3-(5-(4-((4-(benzo[d][1,3]dioxol-5-ylmethyl)piperazin-1-yl)methyl)pyridin-2-yl)-1-oxoisoindolin-2-yl)piperidine-2,6-dione]			
0.2	> 10	67	8	CCN(CC)C(=O)C1CCCN(Cc2ccnc(-c3ccc4c(c3)CN(C3CCC(=O)NC3=O)C4=O)c2)C1 (stereo not shown) [Example 13, 1-((2-(2-(2,6-dioxopiperidin-3-yl)-1-oxoisoindolin-5-yl)pyridin-4-yl)methyl)-N,N-diethylpiperidine-3-carboxamide]			
0.036	> 10	80	16	CC1CCN(Cc2ccnc(-c3ccc4c(c3)CN(C3CCC(=O)NC3=O)C4=O)c2)CC1 (stereo not shown) [Example 14, 3-(5-(4-((4-methylpiperidin-1-yl)methyl)pyridin-2-yl)-1-oxoisoindolin-2-yl)piperidine-2,6-dione]			
0.788	> 10	63	12	CN(CCc1ccccn1)Cc1ccnc(-c2ccc3c(c2)CN(C2CCC(=O)NC2=O)C3=O)c1 (stereo not shown) [Example 16, 3-(5-(4-((methyl(2-(pyridin-2-yl)ethyl)amino)methyl)pyridin-2-yl)-1-oxoisoindolin-2-yl) piperidine-2,6-dione]			
> 10	> 10	16	11	O=C1CCC(N2Cc3cc(-c4cc(CN5CCC(N6CCCCC6)CC5)ccn4)ccc3C2=O)C(=O)N1 (stereo not shown) [Example 17, 3-(5-(4-([1,4′-bipiperidin]-1′-ylmethyl)pyridin-2-yl)-1-oxoisoindolin-2-yl)piperidine-2,6-dione]			
0.154	> 10	82	50	CC(C)N(Cc1ccccc1)Cc1ccnc(-c2ccc3c(c2)CN(C2CCC(=O)NC2=O)C3=O)c1 (stereo not shown) [Example 19, 3-(5-(4-((benzyl(isopropyl)amino)methyl)pyridin-2-yl)-1-oxoisoindolin-2-yl)piperidine-2,6-dione]			
0.06	> 10	80	11	CC1CCCN1Cc1ccnc(-c2ccc3c(c2)CN(C2CCC(=O)NC2=O)C3=O)c1 (stereo not shown) [Example 20, 3-(5-(4-((2-methylpyrrolidin-1-yl)methyl)pyridin-2-yl)-1-oxoisoindolin-2-yl)piperidine-2,6-dione]			
> 10	> 10	35	4	CN(C)CCN(C)Cc1ccnc(-c2ccc3c(c2)CN(C2CCC(=O)NC2=O)C3=O)c1 (stereo not shown) [Example 21, 3-(5-(4-(((2-(dimethylamino)ethyl) (methyl)amino)methyl)pyridin-2-yl)-1-oxoisoindolin-2-yl)piperidine-2,6-dione]			

Compound	DC50 [1, 3] [µM]	DC50 [2] [µM]	Dmax [1, 3] [%]	Dmax [2] [%]	Helios Dmax [1, 3]	Ikaros Dmax [2]	Dmax [1] [%]
3-(1-oxo-5-(4-((4-(pyridin-2-yl)piperidin-1-yl)methyl)pyridin-2-yl)isoindolin-2-yl)piperidine-2,6-dione [Example 15]	> 10	> 10			5%	8%	
3-(1-oxo-5-(4-((4-(pyrimidin-2-yl) piperidin-1-yl)methyl)pyridin-2-yl)isoindolin-2-yl)piperidine-2,6-dione [Example 18]	> 10	> 10			21%	19%	
3-(5-(4-(((cyclobutylmethyl)(methyl)amino)methyl)pyridin-2-yl)-1-oxoisoindolin-2-yl)piperidine-2,6-dione [Example 178]	0.131	> 10			82%	15%	
O=C1CCC(N2Cc3cc(-c4cc(CN5CCC(n6c(=O)[nH]c7ccccc76)CC5)ccn4)ccc3C2=O)C(=O)N1 (stereo not shown) [Example 11, 3-(1-oxo-5-(4-((4-(2-oxo-2,3-dihydro-1H-benzo[d]imidazol-1-yl)piperidin-1-yl)methyl)pyridin-2-yl)isoindolin-2-yl)piperidine-2,6-dione]	0.573	> 10		7			59
